Some results are limits rather than exact numbers.

truncated Polθ protein (Polθ-Hel containing the helicase domain (67-894)), sequence (O75417 67-894): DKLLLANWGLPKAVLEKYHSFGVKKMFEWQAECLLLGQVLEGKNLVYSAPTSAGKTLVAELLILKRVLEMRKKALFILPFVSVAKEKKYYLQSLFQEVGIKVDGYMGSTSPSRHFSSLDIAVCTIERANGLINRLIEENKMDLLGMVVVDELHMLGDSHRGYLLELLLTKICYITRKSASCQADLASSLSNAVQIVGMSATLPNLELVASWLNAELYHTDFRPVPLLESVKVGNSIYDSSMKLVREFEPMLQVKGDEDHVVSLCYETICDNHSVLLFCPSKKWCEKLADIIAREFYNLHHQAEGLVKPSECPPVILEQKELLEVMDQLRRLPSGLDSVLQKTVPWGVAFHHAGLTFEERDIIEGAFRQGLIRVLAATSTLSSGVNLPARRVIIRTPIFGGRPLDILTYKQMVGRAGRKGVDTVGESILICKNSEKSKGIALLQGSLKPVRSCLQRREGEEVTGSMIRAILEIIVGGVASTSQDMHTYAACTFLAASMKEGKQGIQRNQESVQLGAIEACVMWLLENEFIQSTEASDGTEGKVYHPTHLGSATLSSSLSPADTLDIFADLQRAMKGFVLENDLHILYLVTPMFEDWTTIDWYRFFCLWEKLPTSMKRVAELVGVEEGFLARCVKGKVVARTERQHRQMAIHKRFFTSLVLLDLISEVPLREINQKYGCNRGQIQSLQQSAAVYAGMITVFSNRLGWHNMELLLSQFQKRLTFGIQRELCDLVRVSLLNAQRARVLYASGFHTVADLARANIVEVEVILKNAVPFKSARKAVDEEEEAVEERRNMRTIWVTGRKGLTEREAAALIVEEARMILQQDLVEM

In the assay the target is truncated Polθ protein (Polθ-Hel containing the helicase domain (67-894)) (Homo sapiens (Human), UniProt O75417). The experiment in a line: Polθ ATPase assay (Biological Assay 1, ADP-Glo luminescence). It counts as biochemical. To be noted: Polθ-Hel 0.5 nM, DNA substrate 500 nM, ATP 60 μM, 23° C.; read-out: Pole ATPase assay IC50. The protocol:
The Polθ ATPase assay was used to evaluate inhibitors of Polθ ATPase activity, in vitro. Experiments were performed using a truncated Polθ protein (Polθ-Hel containing the helicase domain (67-894), ATP and a DNA single strand Oligo (5′-CTGTCCTGCATGATG-3′) in the Polθ assay buffer (20 mM Tis-HCl (pH 8.8), MgCl2 5 mM, tween20 0.01%, NP40 0.01%, BSA 0.01%, DTT 1 mM). 2 μL of assay buffer containing Pole-Hel protein (0.5 nM) and DNA substrate (500 nM) was transferred into assay ready plates, containing 0.04 μL of compounds diluted in DMSO. After a 30 minutes incubation at 23° C. in the dark, the reaction was triggered by adding 2 μL of ATP (60 μM), in assay buffer. After 60 minutes at 23° C., 4 μl of ADP-Glo™ Reagent (Glo 1) was added followed by 40 minutes of incubation, then 8 μl of ADP-Glom kinase Detection Reagent (Glo 2) followed by 60 minutes of incubation at 23° C. Luminescence was then measured using Tecan F200 infinite plate reader. Raw data were analysed using GeneData to generate IC50 values.
The Polθ ATPase assay described in Biological Assay 1 above was used to evaluate inhibitors of Polθ ATPase activity for the compounds described in the Experimental Part B above, in vitro.
(In ADP-Glo the light output rises with the ADP produced.)
The IC50 is the concentration at which inhibition is half-maximal. With `COc1cnc(Cl)cc1-c1cc(C)ncc1C(=O)Nc1nc2cnc(N[C@@H]3CC[C@H](O)C3)nc2s1` (racemic) [Example 49, rac-2′-chloro-N-(5-{[(1R,3S)-3-hydroxycyclopentyl]amino}-[1,3]thiazolo[5,4-d]pyrimidin-2-yl)-5′-methoxy-6-methyl-[4,4′-bipyridine]-3-carboxamide], the IC50 was below 100 nM.

For `COc1cnc(Cl)cc1-c1cc(C)ncc1C(=O)Nc1nc2ccc(Cl)cc2s1` [Example 1, N-(6-chloro-1,3-benzothiazol-2-yl)-4-(2-chloro-5-methoxy-4-pyridyl)-6-methyl-pyridine-3-carboxamide], the concentration for half-maximal inhibition (IC50) was below 100 nM.

For the molecule `COc1cnc(Cl)cc1-c1cc(C)ncc1C(=O)Nc1nc2ccc(S(C)(=O)=O)cc2s1` [Example 2, 2′-chloro-N-(6-methanesulfonyl-1,3-benzothiazol-2-yl)-5′-methoxy-6-methyl-[4,4′-bipyridine]-3-carboxamide], the IC50 is below 100 nM.

For the molecule `COc1cnc(Cl)cc1-c1cc(C)ncc1C(=O)Nc1nc2ccc(C#N)cc2s1` [Example 3, 2′-chloro-N-(6-cyano-1,3-benzothiazol-2-yl)-5′-methoxy-6-methyl-[4,4′-bipyridine]-3-carboxamide], the IC50 was below 100 nM.

On to `COc1cnc(Cl)cc1-c1cc(C)ncc1C(=O)Nc1nc2ccc(Br)cc2s1` [Example 5, N-(6-bromo-1,3-benzothiazol-2-yl)-2′-chloro-5′-methoxy-6-methyl-[4,4′-bipyridine]-3-carboxamide], for which the IC50 is below 100 nM.

Take `COc1cnc(Cl)cc1-c1cc(C)ncc1C(=O)Nc1nc2cnc(Cl)nc2s1` [Example 6, 2′-chloro-N-{5-chloro-[1,3]thiazolo[5,4-d]pyrimidin-2-yl}-5′-methoxy-6-methyl-[4,4′-bipyridine]-3-carboxamide]: the IC50 is below 100 nM.

`COc1cnc(Cl)cc1-c1cc(C)ncc1C(=O)Nc1nc2ccc(Cl)nc2s1` [Example 7, 2′-chloro-N-{5-chloro-[1,3]thiazolo[5,4-b]pyridin-2-yl}-5′-methoxy-6-methyl-[4,4′-bipyridine]-3-carboxamide]: the IC50 was below 100 nM.

With `COc1ccccc1-c1cnccc1C(=O)Nc1nc2cncnc2s1` [Example 8, 3-(2-methoxyphenyl)-N-{[1,3]thiazolo[5,4-d]pyrimidin-2-yl}pyridine-4-carboxamide], the IC50 fell in the range of 100 to 1000 nM.

In the case of `COc1ccccc1-c1cnccc1C(=O)Nc1nc2ccc(Br)cc2s1` [Example 9, N-(6-bromo-1,3-benzothiazol-2-yl)-3-(2-methoxyphenyl)pyridine-4-carboxamide], the IC50 lay in the range of 100 to 1000 nM.

In the case of `COc1ccccc1-c1cnccc1C(=O)Nc1nc2cnccc2s1` [Example 10, 3-(2-methoxyphenyl)-N-{[1,3]thiazolo[4,5-c]pyridin-2-yl}pyridine-4-carboxamide], the IC50 is above 1000 nM.

As for `COc1ccccc1-c1cnccc1C(=O)Nc1nc2ncccc2s1` [Example 11, 3-(2-methoxyphenyl)-N-{[1,3]thiazolo[4,5-b]pyridin-2-yl}pyridine-4-carboxamide], the IC50 was above 1000 nM.

Regarding `COc1ccccc1-c1cnccc1C(=O)Nc1nc2cc(C(F)(F)F)ccc2s1` [Example 12, 3-(2-methoxyphenyl)-N-[5-(trifluoromethyl)-1,3-benzothiazol-2-yl]pyridine-4-carboxamide], the IC50 is above 1000 nM.

As for `COc1ccccc1-c1cnccc1C(=O)Nc1nc2cc(Cl)ccc2s1` [Example 13, N-(5-chloro-1,3-benzothiazol-2-yl)-3-(2-methoxyphenyl)pyridine-4-carboxamide], the IC50 is above 1000 nM.

As to `COc1ccccc1-c1cnccc1C(=O)Nc1nc2cccnc2s1` [Example 14, 3-(2-methoxyphenyl)-N-{[1,3]thiazolo[5,4-b]pyridin-2-yl}pyridine-4-carboxamide], the IC50 is above 1000 nM.

`COc1cnc(Cl)cc1-c1cc(C)ncc1C(=O)Nc1nc2ccc(N3CCOCC3)cc2s1` [Example 17, 2′-chloro-5′-methoxy-6-methyl-N-[6-(morpholin-4-yl)-1,3-benzothiazol-2-yl]-[4,4′-bipyridine]-3-carboxamide]: the IC50 was below 100 nM.

The values above are taken from patent US20240327430A1 (Breakpoint Therapeutics GmbH, priority 2023, published 2024).
